From paper PMC9865587, “Inhibitory Effects of 2-Aminoethoxydiphenyl Borate (2-APB) on Three KV1 Channel Currents” (Molecules, 2023) come the findings set out here.

Holding throughout (test): cell-based
Assay [1] addresses T1, KV1.4 (Homo sapiens, UniProt P22459).
T1 construct: gene KCNA4

For assay [2], the target named is T2, KV1.4 (Homo sapiens, UniProt P22459, A553V).
T2 construct: gene KCNA4
The settings on record: CHO.

Assay [3] deals with T3, KV1.4 (Homo sapiens, UniProt P22459, L554A).
T3 construct: gene KCNA4
The settings on record: CHO.

In assay [4] the target is T4, KV1.4 (Homo sapiens, UniProt P22459, V558A).
T4 construct: gene KCNA4
Conditions: CHO.

For assay [5], the target named is T5, KV1.4 (Homo sapiens, UniProt P22459, V556A).
T5 construct: gene KCNA4
The settings on record: CHO.

For assay [6], the target named is T6, KV1.4 (Homo sapiens, UniProt P22459, N-TERMINALTRUNCATION(1–61DELETED)).
T6 construct: gene KCNA4

Assay [7] addresses T7, KV1.4 (Homo sapiens, UniProt P22459, V549A).
T7 construct: gene KCNA4
The settings on record: CHO.

The target in assay [8] is T8, KV1.4 (Homo sapiens, UniProt P22459, T551A).
T8 construct: gene KCNA4
Conditions: CHO.

For the next assay, the target named is T9, KV1.3 (Homo sapiens, UniProt P22001).
T9 construct: gene KCNA3

The target in another assay is T10, KV1.2 (Homo sapiens, UniProt P16389).
T10 construct: gene KCNA2
T10 sequence (P16389 whole entry): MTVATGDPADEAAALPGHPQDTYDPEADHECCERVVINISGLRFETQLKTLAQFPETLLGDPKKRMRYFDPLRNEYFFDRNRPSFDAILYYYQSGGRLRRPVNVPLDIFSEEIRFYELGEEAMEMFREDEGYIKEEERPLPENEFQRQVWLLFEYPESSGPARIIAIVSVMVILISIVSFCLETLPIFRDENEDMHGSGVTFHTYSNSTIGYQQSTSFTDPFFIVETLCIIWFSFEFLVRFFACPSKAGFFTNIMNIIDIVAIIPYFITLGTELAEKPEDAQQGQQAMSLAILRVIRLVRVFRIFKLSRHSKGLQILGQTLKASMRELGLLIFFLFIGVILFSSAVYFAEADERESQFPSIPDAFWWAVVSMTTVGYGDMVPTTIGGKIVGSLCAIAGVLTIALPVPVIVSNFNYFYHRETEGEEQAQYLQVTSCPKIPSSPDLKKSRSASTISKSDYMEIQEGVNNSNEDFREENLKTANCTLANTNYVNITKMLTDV

T1 sequence (P22459 whole entry): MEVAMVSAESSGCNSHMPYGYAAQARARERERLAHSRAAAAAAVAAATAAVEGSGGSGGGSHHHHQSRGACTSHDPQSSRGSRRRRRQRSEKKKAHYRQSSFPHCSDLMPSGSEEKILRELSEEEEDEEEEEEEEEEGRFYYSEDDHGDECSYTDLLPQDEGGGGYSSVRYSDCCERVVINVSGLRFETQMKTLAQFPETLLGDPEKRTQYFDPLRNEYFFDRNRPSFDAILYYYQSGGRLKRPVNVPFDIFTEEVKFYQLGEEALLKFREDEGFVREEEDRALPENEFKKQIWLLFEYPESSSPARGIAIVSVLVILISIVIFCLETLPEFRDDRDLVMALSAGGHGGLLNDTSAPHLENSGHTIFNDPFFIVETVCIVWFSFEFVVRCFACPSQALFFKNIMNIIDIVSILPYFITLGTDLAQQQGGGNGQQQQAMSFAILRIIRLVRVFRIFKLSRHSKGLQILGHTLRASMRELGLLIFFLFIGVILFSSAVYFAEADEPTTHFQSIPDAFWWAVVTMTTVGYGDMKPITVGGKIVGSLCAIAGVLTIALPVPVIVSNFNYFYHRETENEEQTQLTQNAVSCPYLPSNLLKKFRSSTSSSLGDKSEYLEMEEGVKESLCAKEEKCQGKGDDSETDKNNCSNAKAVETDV
T3 sequence (P22459 whole entry L554A): as the sequence (P22459 whole entry) above, with L554A counted along it
T5 sequence (P22459 whole entry V556A): as the sequence (P22459 whole entry) above, with V556A counted along it
T2 sequence (P22459 whole entry A553V): as the sequence (P22459 whole entry) above, with A553V counted along it
T6 sequence (P22459 62-653, stated change not applied): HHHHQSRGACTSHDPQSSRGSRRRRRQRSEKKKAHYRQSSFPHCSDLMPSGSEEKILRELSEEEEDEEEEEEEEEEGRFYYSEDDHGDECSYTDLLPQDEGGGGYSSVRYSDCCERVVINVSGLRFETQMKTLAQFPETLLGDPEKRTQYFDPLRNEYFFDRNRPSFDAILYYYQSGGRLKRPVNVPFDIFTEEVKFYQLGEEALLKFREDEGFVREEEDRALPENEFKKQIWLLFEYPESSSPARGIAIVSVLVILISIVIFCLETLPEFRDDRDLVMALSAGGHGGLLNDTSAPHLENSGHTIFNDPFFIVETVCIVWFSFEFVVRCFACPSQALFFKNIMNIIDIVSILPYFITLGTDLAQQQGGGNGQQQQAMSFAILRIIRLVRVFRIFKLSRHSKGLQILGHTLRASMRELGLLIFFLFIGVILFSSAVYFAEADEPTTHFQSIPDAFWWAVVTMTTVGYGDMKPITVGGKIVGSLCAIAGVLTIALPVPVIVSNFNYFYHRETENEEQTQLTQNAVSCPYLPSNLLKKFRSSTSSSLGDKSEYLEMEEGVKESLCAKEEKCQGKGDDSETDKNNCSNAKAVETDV
T4 sequence (P22459 whole entry V558A): as the sequence (P22459 whole entry) above, with V558A counted along it
T7 sequence (P22459 whole entry V549A): as the sequence (P22459 whole entry) above, with V549A counted along it
T8 sequence (P22459 whole entry T551A): as the sequence (P22459 whole entry) above, with T551A counted along it
T9 sequence (P22001 whole entry): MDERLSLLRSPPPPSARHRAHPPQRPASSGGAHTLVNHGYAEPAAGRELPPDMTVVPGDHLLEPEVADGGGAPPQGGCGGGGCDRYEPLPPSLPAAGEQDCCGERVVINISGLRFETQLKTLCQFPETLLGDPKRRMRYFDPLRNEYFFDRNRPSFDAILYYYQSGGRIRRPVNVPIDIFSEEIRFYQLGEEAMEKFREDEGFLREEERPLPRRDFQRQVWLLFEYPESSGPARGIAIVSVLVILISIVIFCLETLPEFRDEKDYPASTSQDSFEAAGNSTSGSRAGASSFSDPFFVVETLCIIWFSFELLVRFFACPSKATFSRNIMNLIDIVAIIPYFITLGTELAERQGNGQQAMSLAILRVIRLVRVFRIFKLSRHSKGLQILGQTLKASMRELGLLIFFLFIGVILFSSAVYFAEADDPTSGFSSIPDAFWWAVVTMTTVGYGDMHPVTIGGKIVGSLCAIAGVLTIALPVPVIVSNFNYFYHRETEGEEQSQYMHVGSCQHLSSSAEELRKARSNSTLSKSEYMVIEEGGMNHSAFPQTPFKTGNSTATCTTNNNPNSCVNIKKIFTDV

`NCCOB(c1ccccc1)c1ccccc1` [2-APB]: the half-inhibitory concentration (IC50) (usually the concentration that inhibits the measured activity by half) came to 67.3 µM at KV1.4 [1], 310 µM against KV1.4 [6], 455 µM at KV1.3 and 310 µM on KV1.2. Besides, the inhibition (in general, how much of the control response was suppressed) at 100 µM at KV1.4 [2] stood at 18.4%; at KV1.4 [3] it was 32.9%; on KV1.4 [4], 57.3%; against KV1.4 [5] it was 60.8%; against KV1.4 [7] it was 44.1%; on KV1.4 [8], 37.8%.
